Data from ChEMBL document CHEMBL3046027, “In vitro and in vivo antifungal activity of synthetic pure isothiocyanates against Sclerotinia sclerotiorum” (Pest Manag Sci, 2011).

What was measured:
[1] = system: Sclerotinia sclerotiorum; experiment: In vivo antifungal Sclerotinia sclerotiorum in Pepper (Capsicum annuum L. cv. Sera Demre) assessed as inhibition of mycelial growth in volatile phase at 150 umol/L measured after 10 to 14 weeks; type: functional
[2] = system: Sclerotinia sclerotiorum; experiment: In vivo antifungal Sclerotinia sclerotiorum in Pepper (Capsicum annuum L. cv. Sera Demre) assessed as inhibition of mycelial growth in volatile phase at 75 umol/L measured after 10 to 14 weeks; type: functional
[3] = system: Sclerotinia sclerotiorum; experiment: Antifungal activity against Sclerotinia sclerotiorum assessed as inhibition of mycelial growth in volatile phase at 751 umol/l measured at 20 degC after 5 days; type: functional; settings: 120 h, read-out: GI
[4] = system: Sclerotinia sclerotiorum; experiment: Antifungal activity against Sclerotinia sclerotiorum assessed as inhibition of mycelial growth in volatile phase at 525 umol/l measured at 20 degC after 5 days; type: functional; settings: 120 h, read-out: GI
[5] = system: Sclerotinia sclerotiorum; experiment: Antifungal activity against Sclerotinia sclerotiorum assessed as inhibition of mycelial growth in volatile phase at 375 umol/l measured at 20 degC after 5 days; type: functional; settings: 120 h, read-out: GI
[6] = system: Sclerotinia sclerotiorum; experiment: Antifungal activity against Sclerotinia sclerotiorum assessed as inhibition of mycelial growth in volatile phase at 75 umol/l measured at 20 degC after 5 days; type: functional; settings: 120 h, read-out: GI
[7] = system: Sclerotinia sclerotiorum; experiment: Antifungal activity against Sclerotinia sclerotiorum assessed as inhibition of mycelial growth in volatile phase at 38 umol/l measured at 20 degC after 5 days; type: functional; settings: 120 h, read-out: GI
[8] = system: Sclerotinia sclerotiorum; experiment: Antifungal activity against Sclerotinia sclerotiorum assessed as inhibition of mycelial growth in contact phase at 2252 umol/l measured at 20 degC after 5 days; type: functional; settings: 120 h, read-out: GI
[9] = system: Sclerotinia sclerotiorum; experiment: Antifungal activity against Sclerotinia sclerotiorum assessed as inhibition of mycelial growth in contact phase at 1501 umol/l measured at 20 degC after 5 days; type: functional; settings: 120 h, read-out: GI
[10] = system: Sclerotinia sclerotiorum; experiment: Antifungal activity against Sclerotinia sclerotiorum assessed as inhibition of mycelial growth in contact phase at 751 umol/l measured at 20 degC after 5 days; type: functional; settings: 120 h, read-out: GI
[11] = system: Sclerotinia sclerotiorum; experiment: Antifungal activity against Sclerotinia sclerotiorum assessed as inhibition of mycelial growth in contact phase at 676 umol/l measured at 20 degC after 5 days; type: functional; settings: 120 h, read-out: GI
[12] = system: Sclerotinia sclerotiorum; experiment: Antifungal activity against Sclerotinia sclerotiorum assessed as inhibition of mycelial growth in contact phase at 525 umol/l measured at 20 degC after 5 days; type: functional; settings: 120 h, read-out: GI
[13] = system: Sclerotinia sclerotiorum; experiment: Fungistatic activity in Sclerotinia sclerotiorum assessed as inhibition of carpogenic germination in volatile phase at 75 umol/l measured at 20 degC after 5 days relative to control; type: functional; settings: 120 h
[14] = system: Sclerotinia sclerotiorum; experiment: Fungistatic activity in Sclerotinia sclerotiorum assessed as inhibition of carpogenic germination in volatile phase at 38 umol/l measured at 20 degC after 5 days relative to control; type: functional; settings: 120 h
[15] = system: Sclerotinia sclerotiorum; experiment: Fungistatic activity in Sclerotinia sclerotiorum assessed as inhibition of carpogenic germination in volatile phase at 751 umol/l measured at 20 degC after 5 days relative to control; type: functional; settings: 120 h
[16] = system: Sclerotinia sclerotiorum; experiment: Fungistatic activity in Sclerotinia sclerotiorum assessed as inhibition of carpogenic germination in volatile phase at 375 umol/l measured at 20 degC after 5 days relative to control; type: functional; settings: 120 h
[17] = system: Sclerotinia sclerotiorum; experiment: Fungistatic activity in Sclerotinia sclerotiorum assessed as sclerotial viability measured at 20 degC after 5 days; type: functional, organism-based; settings: 120 h
[18] = system: Sclerotinia sclerotiorum; experiment: Fungistatic activity in Sclerotinia sclerotiorum assessed as inhibition of mycelial growth in volatile phase measured at 20 degC after 5 days; type: functional, organism-based; settings: 120 h
[19] = system: Sclerotinia sclerotiorum; experiment: Fungistatic activity in Sclerotinia sclerotiorum assessed as inhibition of mycelial growth in contact phase measured at 20 degC after 5 days; type: functional, organism-based; settings: 120 h
[20] = system: Sclerotinia sclerotiorum; experiment: Fungitoxic activity in Sclerotinia sclerotiorum assessed as viability in volatile phase at 225 umol/l measured at 20 degC after 5 days relative to control; type: functional; settings: 120 h, read-out: GI
[21] = system: Sclerotinia sclerotiorum; experiment: Fungitoxic activity in Sclerotinia sclerotiorum assessed as inhibition of mycelial growth in contact phase at 2252 umol/l measured at 20 degC after 5 days relative to control; type: functional; settings: 120 h, read-out: GI
[22] = system: Sclerotinia sclerotiorum; experiment: Fungistatic activity in Sclerotinia sclerotiorum assessed as inhibition of mycelial growth in contact phase at 1501 umol/l measured at 20 degC after 5 days relative to control; type: functional; settings: 120 h, read-out: GI
[23] = system: Sclerotinia sclerotiorum; experiment: Fungitoxic activity in Sclerotinia sclerotiorum assessed as inhibition of mycelial growth in volatile phase at 751 umol/l measured at 20 degC after 5 days relative to control; type: functional; settings: 120 h, read-out: GI
[24] = system: Sclerotinia sclerotiorum; experiment: Antifungal activity against Sclerotinia sclerotiorum assessed as inhibition of germination in volatile phase at 225 umol/l measured at 20 degC after 5 days; type: functional; settings: 120 h
[25] = system: Sclerotinia sclerotiorum; experiment: Antifungal activity against Sclerotinia sclerotiorum assessed as inhibition of germination in volatile phase at 75 umol/l measured at 20 degC after 5 days; type: functional; settings: 120 h
[26] = system: Sclerotinia sclerotiorum; experiment: Antifungal activity against Sclerotinia sclerotiorum assessed as inhibition of germination in volatile phase at 38 umol/l measured at 20 degC after 5 days; type: functional; settings: 120 h
[27] = system: Sclerotinia sclerotiorum; experiment: Fungistatic activity in Sclerotinia sclerotiorum assessed as inhibition of mycelial growth in volatile phase at 525 umol/l measured at 20 degC after 5 days relative to control; type: functional; settings: 120 h, read-out: GI
[28] = system: Sclerotinia sclerotiorum; experiment: Antifungal activity against Sclerotinia sclerotiorum assessed as inhibition of germination in volatile phase at 751 umol/l measured at 20 degC after 5 days; type: functional; settings: 120 h
[29] = system: Sclerotinia sclerotiorum; experiment: Antifungal activity against Sclerotinia sclerotiorum assessed as inhibition of germination in volatile phase at 375 umol/l measured at 20 degC after 5 days; type: functional; settings: 120 h

Compound: S=C=NCc1ccccc1 [BENZYL ISOTHIOCYANATE]
- inhibition in vivo at 150 µM [1]: 63.3%
- inhibition in vivo at 75 µM [2]: 36.7%
- inhibition of growth at 751 µM [3]: 100%
- inhibition of growth at 525 µM [4]: 100%
- inhibition of growth at 375 µM [5]: 78.2%
- inhibition of growth at 75 µM [6]: 71.2%
- inhibition of growth at 38 µM [7]: 35%
- inhibition of growth at 2252 µM [8]: 100%
- inhibition of growth at 1501 µM [9]: 100%
- inhibition of growth at 751 µM [10]: 100%
- inhibition of growth at 676 µM [11]: 37%
- inhibition of growth at 525 µM [12]: 5%
- inhibition at 75 µM [13]: 62.5%
- inhibition at 38 µM [14]: 55%
- inhibition at 751 µM [15]: 92.5%
- inhibition at 375 µM [16]: 72.5%
- EC50 [17]: 75.1 µM
- EC50 [18]: 60.1 µM
- EC50 [19]: 676 µM
- inhibition of growth at 225 µM [20]: 100%
- inhibition of growth at 2252 µM [21]: 100%
- inhibition of growth at 1501 µM [22]: 100%
- inhibition of growth at 751 µM [23]: 100%
- inhibition at 225 µM [24]: 100%
- inhibition at 75 µM [25]: 53.3%
- inhibition at 38 µM [26]: 6.7%
- inhibition of growth at 525 µM [27]: 100%
- inhibition at 751 µM [28]: 100%
- inhibition at 375 µM [29]: 100%
